IC50 data for 28 compounds are collected here from patent US10202360B2 (CELGENE QUANTICEL RESEARCH, INC., priority 2016, dated 2019).

Some results are limits rather than exact numbers.

In test [1] the target is CREBBP (Homo sapiens (Human), UniProt Q92793). Description: In vitro enzyme inhibition assay - CREBBP inhibition (AlphaScreen, biotinylated H4-tetraacetyl peptide). Format: binding. Summed up:
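His-tagged CREBBP expressed in E. coli (50 nM final) incubated with biotinylated H4K5/8/12/16(Ac) peptide (20 nM final) in HEPES pH 7.3 buffer, 0.4% DMSO, 20 min at room temperature.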

In test [2] the target is BRD4 (Homo sapiens (Human), UniProt O60885). Description: In vitro enzyme inhibition assay - BRD4 inhibition (as described in U.S. Pat. No. 9,034,900). Format: binding. The note with it: Table 29; BRD4 BD1.
The mark [3] stands for this setting: Table 28, AlphaScreen, H4-tetraacetyl peptide.

Chain of CREBBP (Q92793 1081-1197): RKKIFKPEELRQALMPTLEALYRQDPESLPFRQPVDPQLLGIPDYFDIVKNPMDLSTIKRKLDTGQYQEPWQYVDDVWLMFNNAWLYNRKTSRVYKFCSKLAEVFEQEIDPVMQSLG

Consider `CCS(=O)(=O)Nc1ncc(Oc2ccc(F)cc2F)c(-c2cc(C)c(=O)n(CC3CC3)c2)n1`, for which the results for the IC50 in test [1] (Table 29) and in test [2] were greater than 5 µM and less than 0.5 µM, respectively.
With `Cc1cccc(Cl)c1Oc1nc(NS(=O)(=O)C(C)C)cc(-c2cc(C)c(=O)n(C)c2)n1` [Example 3, Propane-2-sulfonic acid [2-(2-chloro-6-methyl-phenoxy)-6-(1,5-dimethyl-6-oxo-1,6-dihydro-pyridin-3-yl)-pyrimidin-4-yl]-amide], the IC50 in test [1] (setting [3]) was less than 0.5 µM; in test [1] (Table 29), less than 0.5 µM; in test [2], 0.5 to 5 µM.
As for `COc1cccc(C#N)c1Oc1nc(NS(=O)(=O)C(C)C)cc(-c2cc(C)c(=O)n(C)c2)n1` [Example 11, Propane-2-sulfonic acid [2-(2-cyano-6-methoxy-phenoxy)-6-(1,5-dimethyl-6-oxo-1,6-dihydro-pyridin-3-yl)-pyrimidin-4-yl]-amide], the IC50 in test [1] (setting [3]) was less than 0.5 µM; in test [1] (Table 29), less than 0.5 µM; in test [2] it was greater than 5 µM.
Take `CCCCS(=O)(=O)Nc1cc(-c2cc(C)c(=O)n(C)c2)nc(Oc2c(C)cccc2Cl)n1` [Example 14, Butane-1-sulfonic acid [2-(2-chloro-6-methyl-phenoxy)-6-(1,5-dimethyl-6-oxo-1,6-dihydro-pyridin-3-yl)-pyrimidin-4-yl]-amide]: the half-maximal inhibitory concentration (IC50) in test [1] (setting [3]) was less than 0.5 µM; in test [1] (Table 29), less than 0.5 µM; in test [2] it was 0.5 to 5 µM.
As for `Cc1cc(Cl)cc(Cl)c1Oc1nc(NS(=O)(=O)C(C)C)cc(-c2cc(C)c(=O)n(C)c2)n1` [Example 33, Propane-2-sulfonic acid [2-(2,4-dichloro-6-methyl-phenoxy)-6-(1,5-dimethyl-6-oxo-1,6-dihydro-pyridin-3-yl)-pyrimidin-4-yl]-amide], the concentration for half-maximal inhibition (IC50) in test [1] (setting [3]) is less than 0.5 µM; in test [1] (Table 29), less than 0.5 µM; in test [2], greater than 5 µM.
Turning to `CCCCS(=O)(=O)Nc1cc(-c2cc(C)c(=O)n(C)c2)nc(Oc2c(Cl)cccc2CC)n1` [Example 41, Butane-1-sulfonic acid [2-(2-chloro-6-ethyl-phenoxy)-6-(1,5-dimethyl-6-oxo-1,6-dihydro-pyridin-3-yl)-pyrimidin-4-yl]-amide], the IC50 in test [1] (setting [3]) was less than 0.5 µM; in test [1] (Table 29), less than 0.5 µM; in test [2] it was greater than 5 µM.
Turning to `Cc1cc(-c2cc(NS(=O)(=O)C3CCCC3)nc(Oc3ccc(F)cc3F)n2)cn(C)c1=O` [Example 66, N-(2-(2,4-difluorophenoxy)-6-(1,5-dimethyl-6-oxo-1,6-dihydropyridin-3-yl)pyrimidin-4-yl)cyclopentanesulfonamide], the figures for the half-maximal inhibitory concentration (IC50) in test [1] (setting [3]), in test [1] (Table 29) and in test [2] were less than 0.5 µM, less than 0.5 µM and 0.5 to 5 µM, respectively.
For `CCCCS(=O)(=O)Nc1cc(-c2cc(C)c(=O)n(C)c2)nc(Oc2c(C)cccc2C)n1` [Example 72, N-(6-(1,5-dimethyl-6-oxo-1,6-dihydropyridin-3-yl)-2-(2,6-dimethylphenoxy)pyrimidin-4-yl)butane-1-sulfonamide], the IC50 in test [1] (setting [3]) was less than 0.5 µM; in test [1] (Table 29) it was less than 0.5 µM; in test [2] it was greater than 5 µM.
In the case of `CCCCS(=O)(=O)Nc1cc(-c2cc(Cl)c(=O)n(C)c2)nc(Oc2c(C)cccc2C)n1` [Example 87, N-(6-(5-chloro-1-methyl-6-oxo-1,6-dihydropyridin-3-yl)-2-(2,6-dimethylphenoxy)pyrimidin-4-yl)butane-1-sulfonamide], the IC50 was less than 0.5 µM in test [1] (setting [3]), less than 0.5 µM in test [1] (Table 29) and greater than 5 µM in test [2].
Compound `CCC(C)S(=O)(=O)Nc1cc(-c2ccc(=O)n(C)c2)nc(Oc2c(C)cc(F)cc2F)n1` (stereo not drawn) [Example 345, N-(2-(2,4-difluoro-6-methylphenoxy)-6-(1-methyl-6-oxo-1,6-dihydropyridin-3-yl)pyrimidin-4-yl)butane-2-sulfonamide] registered an IC50 in test [1] (setting [3]) of less than 0.5 µM.
The same measure, in the same setting: the value for `Cc1cc(F)cc(F)c1Oc1nc(NS(=O)(=O)C(C)C)cc(-c2ccc(=O)n(C)c2)n1` [Example 346, N-(2-(2,4-difluoro-6-methylphenoxy)-6-(1-methyl-6-oxo-1,6-dihydropyridin-3-yl)pyrimidin-4-yl)propane-2-sulfonamide] was less than 0.5 µM; that for `CCCCS(=O)(=O)Nc1cc(-c2ccc(=O)n(C)c2)nc(Oc2c(C)ccc(F)c2F)n1` [Example 347, N-(2-(2,3-difluoro-6-methylphenoxy)-6-(1-methyl-6-oxo-1,6-dihydropyridin-3-yl)pyrimidin-4-yl)butane-1-sulfonamide] was less than 0.5 µM; that for `CCCS(=O)(=O)Nc1cc(-c2ccc(=O)n(C)c2)nc(Oc2c(C)ccc(F)c2F)n1` [Example 348, N-(2-(2,3-difluoro-6-methylphenoxy)-6-(1-methyl-6-oxo-1,6-dihydropyridin-3-yl)pyrimidin-4-yl)propane-1-sulfonamide] was less than 0.5 µM.
On the same count and under the same terms, for `CCC(C)S(=O)(=O)Nc1cc(-c2ccc(=O)n(C)c2)nc(Oc2c(C)ccc(F)c2F)n1` (stereo not drawn) [Example 349, N-(2-(2,3-difluoro-6-methylphenoxy)-6-(1-methyl-6-oxo-1,6-dihydropyridin-3-yl)pyrimidin-4-yl)butane-2-sulfonamide] the value was less than 0.5 µM.
The same measure, in the same setting: for `CCCCS(=O)(=O)Nc1cc(-c2ccc(=O)n(C)c2)nc(Oc2c(F)ccc(F)c2C)n1` [Example 350, N-(2-(3,6-difluoro-2-methylphenoxy)-6-(1-methyl-6-oxo-1,6-dihydropyridin-3-yl)pyrimidin-4-yl)butane-1-sulfonamide] the value was less than 0.5 µM; for `CCC(C)S(=O)(=O)Nc1cc(-c2ccc(=O)n(C)c2)nc(Oc2c(F)ccc(F)c2C)n1` (stereo not drawn) [Example 351, N-(2-(3,6-difluoro-2-methylphenoxy)-6-(1-methyl-6-oxo-1,6-dihydropyridin-3-yl)pyrimidin-4-yl)butane-2-sulfonamide], less than 0.5 µM; for `CCCCS(=O)(=O)Nc1nc(Oc2c(C)cccc2F)nc(-c2ccc(=O)n(C)c2)c1F` [Example 352, N-(5-fluoro-2-(2-fluoro-6-methylphenoxy)-6-(1-methyl-6-oxo-1,6-dihydropyridin-3-yl)pyrimidin-4-yl)butane-1-sulfonamide], less than 0.5 µM.
As to `CCCCS(=O)(=O)Nc1cc(-c2ccc(=O)n(C)c2)nc(OC2CCOCC2)n1` [Example 353, N-(6-(1-methyl-6-oxo-1,6-dihydropyridin-3-yl)-2-((tetrahydro-2H-pyran-4-yl)oxy)pyrimidin-4-yl)butane-1-sulfonamide], the IC50 in test [1] (setting [3]) was less than 0.5 µM.
In turn, `CCCS(=O)(=O)Nc1cc(-c2ccc(=O)n(C)c2)nc(OC2CCOCC2)n1` [Example 354, N-(6-(1-methyl-6-oxo-1,6-dihydropyridin-3-yl)-2-((tetrahydro-2H-pyran-4-yl)oxy)pyrimidin-4-yl)propane-1-sulfonamide] yielded a concentration for half-maximal inhibition (IC50) in test [1] (setting [3]) of less than 0.5 µM.
With `CC(C)Oc1nc(NS(=O)(=O)c2ccccc2)cc(-c2ccc(=O)n(C)c2)n1` [Example 355, N-(2-isopropoxy-6-(1-methyl-6-oxo-1,6-dihydropyridin-3-yl)pyrimidin-4-yl)benzenesulfonamide], the concentration for half-maximal inhibition (IC50) in test [1] (setting [3]) is less than 0.5 µM.
In turn, `Cn1cc(-c2cc3nc(n2)Oc2cccc(c2)OCC=CCCS(=O)(=O)N3)ccc1=O` [Example 356, 5-(10,10-dioxido-2,4-dioxa-10-thia-11-aza-1(2,4)-pyrimidina-3(1,3)-benzenacycloundecaphan-6-en-16-yl)-1-methylpyridin-2(1H)-one] had an IC50 in test [1] (setting [3]) of less than 0.5 µM.
On the same count and under the same terms, the value for `Cn1cc(-c2cc3nc(n2)Oc2cccc(c2)OCCCCCS(=O)(=O)N3)ccc1=O` [Example 357, 5-(10,10-dioxido-2,4-dioxa-10-thia-11-aza-1(2,4)-pyrimidina-3(1,3)-benzenacycloundecaphane-1^6-yl)-1-methylpyridin-2(1H)-one] was less than 0.5 µM; that for `Cn1cc(-c2cc3nc(n2)Oc2cccc(c2)OCCC=CCCS(=O)(=O)N3)ccc1=O` [Example 358, 5-(11,11-dioxido-2,4-dioxa-11-thia-12-aza-1(2,4)-pyrimidina-3(1,3)-benzenacyclododecaphan-7-en-1^6-yl)-1-methylpyridin-2(1H)-one] was less than 0.5 µM; that for `Cn1cc(-c2cc3nc(n2)Oc2cccc(c2)OCCCCCCS(=O)(=O)N3)ccc1=O` [Example 359, 5-(11,11-dioxido-2,4-dioxa-11-thia-12-aza-1(2,4)-pyrimidina-3(1,3)-benzenacyclododecaphane-1^6-yl)-1-methylpyridin-2(1H)-one] was less than 0.5 µM.
The same measure, in the same setting: the value for `Cn1cc(-c2cc3nc(n2)Oc2cc(ccc2Cl)OCC=CCCS(=O)(=O)N3)ccc1=O` [Example 360, 5-(36-chloro-10,10-dioxido-2,4-dioxa-10-thia-11-aza-1(2,4)-pyrimidina-3(1,3)-benzenacycloundecaphan-6-en-1^6-yl)-1-methylpyridin-2(1H)-one] was less than 0.5 µM; that for `Cn1cc(-c2cc3nc(n2)Oc2cc(ccc2Cl)OCC=CCCCS(=O)(=O)N3)ccc1=O` [Example 361, 5-(36-chloro-11,11-dioxido-2,4-dioxa-11-thia-12-aza-1(2,4)-pyrimidina-3(1,3)-benzenacyclododecaphan-6-en-1^6-yl)-1-methylpyridin-2(1H)-one] was less than 0.5 µM; that for `Cn1cc(-c2cc3nc(n2)Oc2cc(ccc2F)OCC=CCCCS(=O)(=O)N3)ccc1=O` [Example 362, 5-(36-fluoro-11,11-dioxido-2,4-dioxa-11-thia-12-aza-1(2,4)-pyrimidina-3(1,3)-benzenacyclododecaphan-6-en-1^6-yl)-1-methylpyridin-2(1H)-one] was less than 0.5 µM.
Consider `Cc1sc2c(c1C)C(c1ccc(Cl)cc1)=N[C@@H](CC(=O)OC(C)(C)C)c1nnc(C)n1-2` [JQ-1, tert-butyl (S)-2-(4-(4-chlorophenyl)-2,3,9-trimethyl-6H-thieno[3,2-f][1,2,4]triazolo[4,3-a][1,4]diazepin-6-yl)acetate, reference compound], for which the IC50 in test [1] (Table 29) is greater than 5 µM.
